Results on 3 molecules are retold here after patent US10662193B2, “Carbazole and carboline compounds for use in the diagnosis, treatment, alleviation or prevention of disorders associated with amyloid or amyloid-like proteins” (AC IMMUNE SA, priority 2014, dated 2020).

Some results are limits rather than exact numbers.

For experiment [1], the system named is Aβ plaques on AD brain section. As to the kind of experiment: Assay 1: displacement of Compound B on human AD brain sections (fluorescence). It is filed as binding. The procedure, abridged:
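Frozen […] amygdala sections from Braak V-VI AD donors were preincubated with test compound at 250 μM in 50% ethanol for 20 min at room temperature, then with fluorescent Compound B at 1 μM for 20 min. Staining read at 365 nm excitation; plaques quantified by image analysis.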

Another experiment has as its target AD brain-enriched PHF (Homo sapiens, UniProt P10636). As to the kind of experiment: Assay 2 (filter trap): [3H]RefA radio-binding competition assay and Ki on PHF. The settings on record: [^3H]RefA 10 nM, PHF diluted 1/80, compound 0.12 nM to 50 μM. The procedure:
Displacement of [^3H]RefA by Compounds of this Invention
50 g of frontal lobe tissue from post-mortem brain of an Alzheimer's disease (AD) patient were obtained from the London Tissue Bank. The patient was a […] and died […]. The brain sample was collected 5 hours post-mortem and characterized for Braak disease stage (Braak, H.; Braak, E. Acta Neuropathol., 1991, 82, 239-259) as stage VI. For the enrichment of PHF's, around 15 g of the AD human brain was thawed on ice and homogenized with 50 ml of homogenization buffer [0.75 M NaCl in RAB buffer (100 mM 2-(N-morpholino) ethanesulfonic acid (MES), 1 mM EGTA, 0.5 mM MgSO4, 2 mM DTT, pH 6.8) supplemented with protease inhibitors (Complete; Roche 11697498001) in a glass Dounce homogenizer. The homogenate was then incubated at 4° C. for 20 min to let any residual microtubules depolymerize, before the homogenate was transferred into polycarbonate centrifuge bottles (16×76 mm; Beckman 355603) and centrifuged at 11,000 g (12,700 RPM) in an ultracentrifuge (Beckman, XL100K) for 20 min at 4° C. using the pre-cooled 70.1 rotor (Beckman, 342184). Pellets were kept on ice. Supernatants were pooled into polycarbonate bottles and centrifuged again at 100,000 g (38,000 RPM) for 1 h at 4° C. in the 70.1 Ti rotor to isolate PHF-rich pellets, whereas soluble tau remained in the supernatants. The pellets from the first and second centrifugations were re-suspended in 120 mL of extraction buffer [10 mM Tris-HCl pH 7.4, 10% sucrose, 0.85 M NaCl, 1% protease inhibitor (Calbiochem 539131), 1 mM EGTA, 1% phosphatase inhibitor (Sigma P5726 and P0044)]. The solution was then transferred into polycarbonate centrifuge bottles (16×76 mm; Beckman 355603) and centrifuged at 15,000 g (14,800 RPM) in an ultracentrifuge (Beckman, XL100K) for 20 min at 4° C. using the 70.1 Ti rotor. In the presence of 10% sucrose and at low speed centrifugation, most PHF remained in the supernatant whereas intact or fragmented NFTs and larger PHF aggregates were pelleted. The pellets were discarded. 20% Sarkosyl (Sigma L7414-10ML) was added to the supernatants to a final concentration of 1% and stirred at room temperature for 1 h. This solution was then centrifuged into polycarbonate bottles at 100,000 g (38,000 RPM) for 1 h at 4° C. in the 70.1 Ti rotor, and the pellets containing PHF-rich material were re-suspended in a total final volume of 1.5 mL of PBS, aliquoted and stored at −80° C.
[^3H]RefA Radio-Binding Competition Assay
AD brain-enriched PHF diluted 1/80 were incubated in the presence of [^3H]RefA at 10 nM and the example compounds of this invention at 2.5 μM (250× excess), for 45 minutes at 37° C. Samples were then analyzed by on GF/B filter plates as described above (in the section “[^3H]RefA radio-binding assay and determination of the dissociation constant (Kd)). Non-specific signal was determined again with an excess of un-labeled RefA and specific binding calculated by subtracting the non-specific signal from the total signal. Competition was calculated as percent, where 0% was defined as the specific binding in the presence of vehicle (2.8% DMSO in PBS) and 100% as the values obtained in the presence of excess cold RefA. Similar assays were performed to determine the competition of the cold compounds on [^3H]RefA on in vitro aggregated recombinant human tau or Abeta1-42 For both recombinant proteins, 20 μg/mL of aggregates were incubated with 10 nM of [^3H]RefA for recombinant human tau or 80 nM of [^3H]RefA for recombinant human Abeta1-42.
Determination of the Binding Affinity (Ki)
Samples were then analyzed on GF/B filter plates as described above and Ki values calculated using Prism V5 (GraphPad).

The test system of experiment [2] is tau tangles on AD brain section. Put plainly: Assay 1: displacement of RefA on human AD brain sections (fluorescence). It counts as binding. The conditions noted are these: for Selectivity (tau/Abeta): ratio of competition on tau tangles to competition on Aβ plaques. The procedure, abridged: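 Braak V-VI AD amygdala frozen sections were preincubated with test compound at 250 μM in 50% ethanol for 20 min at room temperature. Fluorescent RefA at 1 μM in 50% ethanol was then added for 20 min, imaged at 470 nm excitation, and tangles were quantified.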

AD brain-enriched PHF, sequence (P10636 623-708 limits assumed): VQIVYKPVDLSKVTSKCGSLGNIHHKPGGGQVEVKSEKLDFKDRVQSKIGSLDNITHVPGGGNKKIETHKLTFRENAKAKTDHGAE

In general, Ki refers to a dissociation constant, usually derived from enzyme kinetics or from competition with a known ligand. Low readings indicate a stronger hold on the target, high ones a looser hold on the target. Take `Cn1c2ccncc2c2ccc(Nc3ccc(OC(F)F)cc3)nc21` [Example 9]: in experiment [1], the “Competition on AD brain section Aβ plaques (1 μM Compound B vs 250 μM compound)” value stood at 0%. Moreover, on AD brain-enriched PHF, the inhibition constant Ki worked out at 0.0078 µM. In experiment [2], the “Competition on AD brain section tau tangles (1 μM RefA vs. 250 μM compound)” value is on record as 97% and the “Selectivity (tau/Abeta)” value is on record as greater than 97 fold.
On to `Cn1c2ccncc2c2ccc(Nc3cccc(OCCF)c3)nc21` [Example 8], for which the “Competition on AD brain section Aβ plaques (1 μM Compound B vs 250 μM compound)” value in experiment [1] was 6%. In addition, the inhibition constant (Ki) on AD brain-enriched PHF worked out at 0.026 µM. In experiment [2], the “Competition on AD brain section tau tangles (1 μM RefA vs. 250 μM compound)” value came out at 90% and the “Selectivity (tau/Abeta)” value was roughly 15 fold.
For `Cn1c2ccncc2c2ccc(Nc3ccc(F)c(F)c3)nc21` [Example 2], in that order: 0%, 0.022 µM, 96% and greater than 96 fold.
